# Source: paper PMC10180349 (Molecules, 2023)
# How the values were obtained:
# [1] = Acute-toxicity experiment, single dose via tail vein
# [2] = Solubility experiment in water; conditions: for appearance of sample in water (solubility by photograph): diluted to 5 mg/mL by water
# [3] = cited from earlier work
# [4] = tested on: MDA-MB-231; assay: cells; conditions: Homo sapiens, MDA-MB-231, 48 h
# [5] = tested on: MDA-MB-231 cells; assay: Annexin V-FITC/PI flow cytometry apoptosis assay; format: cell-based, Human; conditions: 48 h
# Procedure: Cell apoptosis analysis was performed according to the manufacturer’s protocol of the Annexin V-FITC Detection kit (Beyotime, Shanghai, China). […] Finally, the samples were tested by flow cytometer (BD FACSCelesta) and analyzed using FlowJo Software (Tree Star Inc., Ashland, OR, USA). The PTX-treated group was used as a positive control.
# [6] = tested on: MDA-MB-231 cells; assay: Transmission electron microscopy of treated cells; format: cell-based, Human; conditions: MDA-MB-231, 0.1 nM, 48 h
# Procedure: Ultrathin sections were isolated, stained with uranyl acetate and lead citrate for 10 min, and finally observed through the Hitachi H-7650 transmission electron microscope (Tokyo, Japan). The PTX-treated group was used as a positive control.
# [7] = tested on: MDA-MB-231 cells; assay: Cell cycle analysis (PI, flow cytometry); format: cell-based, Human; conditions: 48 h
# Procedure: Cell cycle assay was performed using the DNA Content Quantitation Assay (Solarbio, Beijing, China). […] Then, the fixed cells were incubated with RNase A solution at 37 °C for 30 min and stained with PI in the dark for 30 min at 4 °C. The red fluorescence was detected using a flow cytometer (BD FACSCalibur) at 488 nm and analyzed by FlowJo Software (Tree Star Inc, Ashland, OR, USA). The PTX-treated group was set as a positive control.
# [8] = tested on: MDA-MB-231 xenograft tumor tissue; assay: TUNEL assay of tumor slides; format: in vivo, Female BALB/c nude mice; conditions: PTX-TTHA 6.87-13.73 mg/kg q3d; PTX 10 mg/kg q7d
# Procedure: The tumor slides of MDA-MB-231 xenograft mice were deparaffinized and rehydrated as per the method described above. Then, the TUNEL assay was performed according to the manufacturer’s instructions. Briefly, slides were permeabilized with proteinase K for 20 min and blocked with 3% H2O2 for 10 min. After washing, slides were incubated with Biotin labeling solution for 1 h, and the nucleus was counterstained with DAPI for 1 min. The localized red fluorescence of the apoptotic cells was visualized by fluorescence microscopy. Two experienced pathologists randomly selected 10 (×200) fields for every slide and then analyzed them. The percentage of TUNEL-positive cells among total cells was semi-quantitatively measured with the Image-J software.
# [9] = tested on: microtubules in MDA-MB-231 cells; assay: Immunofluorescence staining of microtubules (α-tubulin antibody); format: cell-based, Human; conditions: MDA-MB-231, 0.1 nM, 48 h
# Procedure: Cells were fixed with 4% paraformaldehyde for 20 min, permeabilized with 0.1%Triton X-100 for 5 min, and blocked with 1% BSA for 1.5 h. Next, cells were incubated with α-tubulin antibody (1:400 Abcam, AB52866) at 4 °C overnight, followed by the Alexa Fluor 488 conjugated goat anti-rabbit IgG secondary antibody (1:300, ZF-0511, Zhongshan Goldenbridge Biotechnology, Beijing, China). Finally, nuclei were stained with DAPI for 4 min. Stained cells were observed using a laser confocal microscope (LSM700; Zeiss, Gottingen, Germany). The PTX-treated group was used as a positive control.
# [10] = tested on: 4T1; assay: cells; conditions: Mus musculus, 4T1, 48 h
# [11] = tested on: MCF-7; assay: cells; conditions: Homo sapiens, MCF7, 48 h
# [12] = physchem; conditions: water
# [13] = tested on: MCF 10A; format: cell-based; conditions: Homo sapiens, 48 h
# [14] = tested on: 4T1; conditions: SI = IC50 MCF 10A/IC50 4T1, 48 h
# [15] = tested on: Ki-67; assay: Ki-67 immunohistochemical staining of tumor slides; format: in vivo, Female BALB/c nude mice; conditions: 6.87, 10.30, 13.73 mg/kg q3d, p < 0.01
# Procedure: The tumor slides of MDA-MB-231 xenograft mice were deparaffinized and rehydrated as per the method described above. Next, slides were boiled in citrate antigen retrieval solution for 2 min and then blocked with 3% H2O2 for 10 min. After washing, slides were incubated with primary Ki-67 antibody (1:400, Abcam AB15580) at 4 °C overnight, followed by incubation with the goat anti-rabbit HRP-conjugated secondary antibody (1:500) for 1 h at RT. Finally, slides were stained with DAB chromogenic reagent and hematoxylin. Images were visualized using a Zeiss microscope (Carl Zeiss Meditec AG, Jena, Germany). Three separate visual fields were randomly selected from each slice. The percentage of the positive area was semi-quantitatively analyzed with the Image-J software.
# [16] = tested on: Bax; assay: Western blot of xenograft tumor tissues; format: in vivo, Female BALB/c nude mice; conditions: 6.87, 10.30, 13.73 mg/kg q3d, dose-dependent, p < 0.01
# Procedure: (§1) The removed tumor tissues were cut into pieces and homogenized in RIPA lysis buffer (Cat#P0013B; Beyotime, Shanghai, China) containing PMSF protease inhibitor (Cat#ST506; Beyotime, Shanghai, China) (RIPA: PMSF = 100:1) using a glass homogenizer on ice for 30 min. The lysates were harvested by centrifugation (12,000 rpm) at 4 °C for 5 min. The protein concentrations were measured by BCA Protein Assay Kit (Beyotime, Shanghai, China) and boiled at 95 °C for 5 min. Then, equal amounts of proteins (30 μg) from five groups were separated by 10% SDS-PAGE and transferred to PVDF membranes (EMD Millipore, Billerica, MA, USA). The membranes were blocked with 5% non-fat milk for 2 h and washed with TBST buffer. Next, membranes were incubated with primary antibodies (β-actin, cleaved caspase-3, Bax, Bcl-2) at a dilution of 1:1000 at 4 °C overnight, followed by the goat anti-rabbit HRP-conjugated secondary antibody (1:5000) for 2 h at room temperature. β-actin was used as an internal control. Protein bands were visualized by a chemiluminescence detection system (Bio-Rad, Hercules, CA, USA) and quantitated using the Image-J software.
# [17] = tested on: Bcl-2; assay: Western blot of xenograft tumor tissues; format: in vivo, Female BALB/c nude mice; conditions: 6.87, 10.30, 13.73 mg/kg q3d, dose-dependent, p < 0.01
# Procedure: as §1
# [18] = tested on: cleaved caspase-3; assay: Western blot of xenograft tumor tissues; format: in vivo, Female BALB/c nude mice; conditions: 6.87, 10.30, 13.73 mg/kg q3d, dose-dependent, p < 0.01
# Procedure: as §1
# [19] = tested on: MCF-7; conditions: SI = IC50 MCF 10A/IC50 MCF-7, 48 h
# [20] = tested on: caspase-3; assay: Caspase-3 activity assay in cell lysates; format: cell-based, Human; conditions: MDA-MB-231, 0.1 and 1 nM, 48 h
# Procedure: The activity of caspase-3 was performed according to the manufacturer’s protocol of the Caspase-3 Activity Assay Kit (Beyotime, Shanghai, China). […] Then, the absorbance was measured at 405 nm using a Microplate Reader (Thermo 3001, Vantaa, Finland), and the protein concentration was obtained via Bradford assay. Data were normalized for the protein content of each supernatant and expressed as the relative value compared to the control. The PTX-treated group was used as a positive control.
# [21] = tested on: MDA-MB-231; conditions: SI = IC50 MCF 10A/IC50 MDA-MB-231, 48 h
# [22] = Organ-body indices and signs of toxicity in the xenograft model; conditions: q3d, 3 weeks
# [23] = tested on: MDA-MB-231 xenograft breast tumor model; assay: In vivo antitumor assay; conditions: medium dose 10.30 mg/kg (MPTX-TTHA), q3d, tail vein, 21 days
smiles,measurement,setting,value
"CC(=O)O[C@H]1C(=O)[C@@]2(C)[C@H]([C@H](OC(=O)c3ccccc3)[C@]3(O)C[C@H](OC(=O)[C@H](O)[C@@H](NC(=O)c4ccccc4)c4ccccc4)C(C)=C1C3(C)C)[C@]1(OC(C)=O)CO[C@@H]1C[C@@H]2O [PTX, Paclitaxel, reference compound]","ALT, AST, Scr, WBC and NEUT values compared with controls","[1]; 20 mg/kg CrEL paclitaxel, Taxol (PTX), day 3, p < 0.001",significantly altered
same,appearance of sample in water (solubility by photograph),[2],almost insoluble in water
same,solubility in water,[3],0.3 to 0.5 µg/mL
same,IC50,[4],8.68 ± 0.75 nM
same,cell apoptosis rate,"[5]; 0.1 nM, control 2.17% ± 0.76%",29.57% ± 3.31
same,morphological changes of apoptosis (TEM),[6],remarkable cellular apoptosis-related characteristics were observed
same,cells in G2/M phase,"[7]; 0.1 nM, control 8.74 ± 0.60%",24.22 ± 0.70%
same,TUNEL signal of apoptotic cells in tumor tissue,[8],strong red fluorescent signal
same,microtubule fluorescence intensity compared with the control group,[9],enhanced fluorescence intensity of microtubules
same,IC50,[10],9.45 ± 1.34 nM
same,IC50,[11],9.99 ± 0.94 nM
same,solubility,[12],< 0.7 µg/mL
"CC(=O)O[C@H]1C(=O)[C@@]2(C)[C@H]([C@H](OC(=O)c3ccccc3)[C@]3(O)C[C@H](OC(=O)[C@H](OC(=O)CN(CCN(CCN(CCN(CC(=O)O)CC(=O)O)CC(=O)O)CC(=O)O)CC(=O)O)[C@@H](NC(=O)c4ccccc4)c4ccccc4)C(C)=C1C3(C)C)[C@]1(OC(C)=O)CO[C@@H]1C[C@@H]2O [PTX-TTHA, 3,6,9,12-Tetraazatetradecanedioic acid, 3,6,9,12-tetrakis(carboxymethyl)-1-[2-(benzoylamino)-1-[[[6,12b-bis(acetyloxy)-12-(benzoyloxy)-2a,3,4,4a,5,6,9,10,11,12,12a,12b-dodecahydro-4,11-dihydroxy-4a,8,13,13-tetramethyl-5-oxo-7,11-methano-1H-cyclodeca [3, 4]benz [1,2-b]oxet-9-yl]oxy]carbonyl]-2-phenylethyl] ester]",IC50,[13],367 ± 8.2 nM
same,histopathology of main organs (H&E),"[1]; 138.6 mg/kg, single dose",No histological alterations were observed
same,body weight change compared with controls,"[1]; 138.6 mg/kg, single dose, day 2, normal thereafter",slight weight loss
same,blood biochemical and hematological test index values compared with control,"[1]; 138.6 mg/kg, single dose, day 3 and day 14",no significant differences
same,toxic signs after administration,"[1]; 138.6 mg/kg, single dose, tail vein, 14 days",none of these toxic signs were observed
same,"acute toxicity on vital organs, hematological, and biochemical parameters","[1]; limit dose 138.6 mg/kg, i.v.",no sign of acute toxicity
same,appearance of sample in water (solubility by photograph),[2],completely clear
same,"water solubility, fold higher than that of paclitaxel",[2]; water,about 7140 fold
same,selectivity index (SI),[14],21.36
same,Ki-67 expression in tumor tissues compared with the control group,[15],significantly reduced
same,Bax expression level in tumor compared with the control group,[16],significantly upregulated
same,Bcl-2 expression level in tumor compared with the control group,[17],significantly downregulated
same,cleaved caspase-3 expression level in tumor compared with the control group,[18],significantly upregulated
same,IC50,[4],12.7 ± 1.34 nM
same,cell apoptosis rate,"[5]; 0.1 nM, control 2.17% ± 0.76%",30.4% ± 3.61
same,cell apoptosis rate,[5]; 1 nM,50.5% ± 2.19
same,morphological changes of apoptosis (TEM),[6],remarkable cellular apoptosis-related characteristics were observed
same,cells in G2/M phase,"[7]; 0.1 nM, control 8.74 ± 0.60%",23.06 ± 0.92%
same,cells in G2/M phase,[7]; 1 nM,51.40% ± 0.45
same,TUNEL signal of apoptotic cells in tumor tissue,[8],strong red fluorescent signal
same,selectivity index (SI),[19],23.19
same,microtubule fluorescence intensity compared with the control group,[9],enhanced fluorescence intensity of microtubules
same,caspase-3 activity compared with the control group,[20],significantly activated
same,IC50,[10],17.2 ± 1.96 nM
same,selectivity index (SI),[21],28.97
same,IC50,[11],15.8 ± 1.04 nM
same,signs of toxicity during treatment,"[22]; 6.87, 10.30, 13.73 mg/kg, tail vein",No noticeable signs of toxicity were observed
same,"organ-body index, Heart","[22]; HPTX-TTHA, 13.73 mg/kg",5.56 ± 0.49 mg/g
same,"organ-body index, Kidney","[22]; HPTX-TTHA, 13.73 mg/kg",16.09 ± 0.50 mg/g
same,"organ-body index, Liver","[22]; HPTX-TTHA, 13.73 mg/kg",63.73 ± 5.63 mg/g
same,"organ-body index, Lung","[22]; HPTX-TTHA, 13.73 mg/kg",7.28 ± 0.73 mg/g
same,"organ-body index, Spleen","[22]; HPTX-TTHA, 13.73 mg/kg",6.20 ± 0.65 mg/g
same,"organ-body index, Heart","[22]; LPTX-TTHA, 6.87 mg/kg",5.56 ± 0.63 mg/g
same,"organ-body index, Kidney","[22]; LPTX-TTHA, 6.87 mg/kg",16.03 ± 0.49 mg/g
same,"organ-body index, Liver","[22]; LPTX-TTHA, 6.87 mg/kg",63.63 ± 4.54 mg/g
same,"organ-body index, Lung","[22]; LPTX-TTHA, 6.87 mg/kg",7.29 ± 0.79 mg/g
same,"organ-body index, Spleen","[22]; LPTX-TTHA, 6.87 mg/kg",6.35 ± 0.51 mg/g
same,"organ-body index, Heart","[22]; MPTX-TTHA, 10.30 mg/kg",5.49 ± 0.15 mg/g
same,"organ-body index, Kidney","[22]; MPTX-TTHA, 10.30 mg/kg",16.05 ± 0.47 mg/g
same,"organ-body index, Liver","[22]; MPTX-TTHA, 10.30 mg/kg",63.20 ± 5.17 mg/g
same,"organ-body index, Lung","[22]; MPTX-TTHA, 10.30 mg/kg",7.16 ± 0.61 mg/g
same,"organ-body index, Spleen","[22]; MPTX-TTHA, 10.30 mg/kg",6.16 ± 1.05 mg/g
same,solubility,[12]; thermodynamic from solid,> 5000 µg/mL
same,tumor inhibition rate,[23],~70.51%
